Patent US8546381B2, “Bridged heterocyclic compounds and methods of use” (Medivation Technologies, Inc., priority 2008, dated 2013)

Key:
[1] = molecular target: T1, human recombinant adrenergic α1D receptor (Homo sapiens, UniProt P25100); test: Adrenergic α1D radioligand binding ([3H]Prozosin); settings: 1 μM; read-out: Adrenergic α1D, inhibition of ligand binding (1 μM)
T1 construct: expressed in transfected cells; host or cells: HEK-293 cells
T1 sequence (P25100 1-572): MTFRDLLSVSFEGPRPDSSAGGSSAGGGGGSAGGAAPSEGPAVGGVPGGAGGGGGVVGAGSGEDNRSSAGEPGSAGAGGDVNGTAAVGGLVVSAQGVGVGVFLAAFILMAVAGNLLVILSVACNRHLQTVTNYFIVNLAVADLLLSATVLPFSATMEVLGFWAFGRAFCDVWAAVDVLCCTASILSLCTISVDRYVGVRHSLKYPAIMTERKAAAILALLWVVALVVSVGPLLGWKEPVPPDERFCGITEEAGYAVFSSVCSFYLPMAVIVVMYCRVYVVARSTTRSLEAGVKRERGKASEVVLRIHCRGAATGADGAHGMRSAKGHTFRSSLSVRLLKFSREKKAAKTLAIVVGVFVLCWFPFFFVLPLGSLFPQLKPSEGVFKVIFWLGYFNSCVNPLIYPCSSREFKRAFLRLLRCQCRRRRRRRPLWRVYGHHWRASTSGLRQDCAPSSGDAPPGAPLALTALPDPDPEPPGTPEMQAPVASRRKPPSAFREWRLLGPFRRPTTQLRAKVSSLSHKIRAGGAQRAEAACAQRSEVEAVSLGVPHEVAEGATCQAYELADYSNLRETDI
Procedure: To evaluate in radioligand binding assays the activity of compounds of the invention, human recombinant adrenergic α1D receptor expressed in human embryonic kidney (HEK-293) cells (Kenny, B. A. et al. Br. J. Pharmacol. 115(6):981, 1995) in a 50 mM Tris-HCl buffer, pH 7.4, was used. Compounds of invention were incubated with 0.6 nM [^3H]Prozosin for 60 minutes at 25° C. Non-specific binding was estimated in the presence of 10 μM phentolamine. Receptor proteins were filtered and washed, the filters were then counted to determine [^3H]Prozosin specifically bound. Compounds were screened at 1 μM or lower, using 1% DMSO as vehicle. Biochemical assay results are presented as the percent inhibition of specific binding in Table 3.

[2] = molecular target: T2, human recombinant adrenergic α2B receptor (Homo sapiens, UniProt P18089); test: Adrenergic α2B radioligand binding ([3H]Rauwolscine); settings: 1 μM; read-out: Adrenergic α2B, inhibition of ligand binding (1 μM)
T2 construct: expressed in transfected cells; host or cells: CHO-K1 cells
T2 sequence (P18089 1-450): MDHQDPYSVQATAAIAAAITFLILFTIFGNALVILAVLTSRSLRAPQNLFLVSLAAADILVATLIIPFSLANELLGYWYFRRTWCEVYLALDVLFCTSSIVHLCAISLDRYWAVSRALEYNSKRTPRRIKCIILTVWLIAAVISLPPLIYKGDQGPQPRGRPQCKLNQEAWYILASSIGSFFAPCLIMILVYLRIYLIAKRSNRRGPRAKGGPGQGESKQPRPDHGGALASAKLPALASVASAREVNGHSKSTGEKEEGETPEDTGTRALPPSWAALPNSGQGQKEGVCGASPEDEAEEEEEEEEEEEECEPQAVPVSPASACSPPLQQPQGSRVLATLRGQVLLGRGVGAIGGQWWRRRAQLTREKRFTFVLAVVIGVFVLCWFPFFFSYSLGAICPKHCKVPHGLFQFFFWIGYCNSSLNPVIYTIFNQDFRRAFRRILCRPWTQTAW
Procedure: To evaluate in radioligand binding assays the activity of compounds of the invention, human recombinant adrenergic α2B receptor expressed in Chinese hamster ovary (CHO-K1) cells (Uhlen S et al. Eur J. Pharmacol. 343(1):93, 1998) in a modified Tris-HCl buffer (50 mM Tris-HCl, pH 7.4, 12.5 mM MgCl2, 1 mM EDTA, 0.2% BSA) was used. Compounds of the invention were incubated with 2.5 nM [^3H]Rauwolscine for 60 minutes at 25° C. Non-specific binding was estimated in the presence of 10 μM Prozosin. Receptor proteins were filtered and washed, the filters were then counted to determine [^3H]Rauwolscine specifically bound. Compounds were screened at 1 μM or lower, using 1% DMSO as vehicle. Biochemical assay results are presented as the percent inhibition of specific binding in Table 3.

[3] = molecular target: T3, human recombinant adrenergic α2A receptor (Homo sapiens, UniProt P08913); test: Adrenergic α2A radioligand binding ([3H]MK-912); settings: 1 μM; read-out: Adrenergic α2A, inhibition of ligand binding (1 μM)
T3 construct: expressed in transfected cells; host or cells: insect Sf9 cells
T3 sequence (P08913 1-465): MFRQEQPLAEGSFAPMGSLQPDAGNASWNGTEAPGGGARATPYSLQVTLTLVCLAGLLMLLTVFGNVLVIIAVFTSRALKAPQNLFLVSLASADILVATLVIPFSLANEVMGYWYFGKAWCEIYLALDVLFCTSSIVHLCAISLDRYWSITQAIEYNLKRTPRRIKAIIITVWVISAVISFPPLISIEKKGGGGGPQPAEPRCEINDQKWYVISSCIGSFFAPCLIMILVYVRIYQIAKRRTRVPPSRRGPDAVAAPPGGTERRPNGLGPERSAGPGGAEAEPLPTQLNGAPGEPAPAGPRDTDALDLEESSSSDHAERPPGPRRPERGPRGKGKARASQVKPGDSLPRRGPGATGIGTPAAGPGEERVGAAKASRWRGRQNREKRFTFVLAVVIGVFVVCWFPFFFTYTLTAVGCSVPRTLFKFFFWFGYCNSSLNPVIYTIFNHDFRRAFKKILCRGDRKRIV
Procedure: To evaluate in radioligand binding assays the activity of compounds of the invention, human recombinant adrenergic α2A receptor expressed in insect Sf9 cells (Uhlen S et al. J Pharmacol Exp Ther. 271:1558, 1994) in a modified Tris-HCl buffer (50 mM Tris-HCl, pH 7.4, 12.5 mM MgCl2, 2 mM EDTA) was used. Compounds of invention were incubated with 1 nM [^3H]MK-912 for 60 minutes at 25° C. MK912 is (2S-trans)-1,3,4,5′,6,6′,7,12b-octahydro-1′,3′-dimethyl-spiro[2H-benzofuro[2,3-a]quinolizine-2,4′(1′H) -pyrimidin]-2′(3′H)-one hydrochloride Non-specific binding was estimated in the presence of 10 μM WB-4101 (2-(2,6-Dimethoxyphenoxyethyl)aminomethyl-1,4-benzodioxane hydrochloride). Receptor proteins were filtered and washed, the filters were then counted to determine [^3H]MK-912 specifically bound. Compounds were screened at 1 μM or lower, using 1% DMSO as vehicle. Biochemical assay results are presented as the percent inhibition of specific binding in Table 3.

SMILES	inhibition at 1 µM [1] [%]	inhibition at 1 µM [2] [%]	inhibition at 1 µM [3] [%]
Cc1ccc2c(c1)c1c(n2CCc2nc(-c3ccccc3)cs2)CC2CCC1N2C (stereo not drawn) [Compound 114]	68	107	46
C/C(=C\n1c2c(c3cc(C)ccc31)C1CCC(C2)N1C)c1ccc(Cl)cc1 (stereo not drawn) [Compound 116]	40	95	83
C/C(=C/n1c2c(c3ccccc31)[C@@H]1CC[C@H](C2)N1C)c1ccc(F)cc1 [Compound 121]	80	100	55
C/C(=C\n1c2c(c3cc(Cl)ccc31)C1CCC(C2)N1C)c1ccc(F)cc1 (stereo not drawn) [Compound 123]	79	103	95
C/C(=C\n1c2c(c3cc(C)ccc31)C1CCC(C2)N1C)c1ccc(F)cc1 (stereo not drawn) [Compound 124]	67	101	91
C/C(=C\n1c2c(c3cc(Cl)ccc31)C1CCC(C2)N1C)c1ccc(Cl)cc1 (stereo not drawn) [Compound 125]	54	103	92
COc1ccc(/C(C)=C/n2c3c(c4cc(Cl)ccc42)C2CCC(C3)N2C)cc1F (stereo not drawn) [Compound 136]	61	87	91
CN1C2CCC1c1c(n(C#Cc3ccc(F)cc3)c3ccc(Cl)cc13)C2 (stereo not drawn) [Compound 138]	60	109	95
Cc1ccc(C#Cn2c3c(c4cc(Cl)ccc42)C2CCC(C3)N2C)cn1 (stereo not drawn) [Compound 139]	65	115	93
Cc1ccc2c(c1)c1c(n2C#Cc2ccc(F)cc2)CC2CCC1N2C (stereo not drawn) [Compound 141]	20	95	61
CN1C2CCC1c1c(n(C#Cc3ccc(Cl)cc3)c3ccc(Cl)cc13)C2 (stereo not drawn) [Compound 142]	27	95	82
COc1ccc(C(C)(O)Cn2c3c(c4cc(Cl)ccc42)C2CCC(C3)N2C)cc1F (stereo not drawn) [Compound 160]	0	80	63
COc1ccc(C(C)(O)Cn2c3c(c4cc(C)ccc42)C2CCC(C3)N2C)cc1F (stereo not drawn) [Compound 161]	30	95	55
Cc1ccc2c(c1)c1c(n2C(=O)Cc2ccc(Cl)cc2)CC2CCC1N2C (stereo not drawn) [Compound 162]	34	83	59
C/C(=C\n1c2c(c3cc(C)ccc31)C1CCC(C2)N1C)c1ccc(Cl)cc1Cl (stereo not drawn) [Compound 163]	53	104	95
